Laboratory results from the OPERA property sets (Mansouri et al. 2018).

logP | SMILES
2.9 | C1C2C3C2C2C1C32 (stereo unspecified)
0.4 | OC1C2CCC(C2)C1O (stereo unspecified)
1.07 | OC(C1CC1)C1CC1
0.81 | O=C1C2CC3C(C2)C13
3.24 | C1=CC2CCC1C2
0.99 | OC1CC2C=CC1C2 (stereo unspecified)
1.45 | OC1CC2CCC1C2 (stereo unspecified)
-0.42 | OC1C2CC3C1C3C2O (stereo unspecified)
3.35 | ClC1CC2CCC1C2 (stereo unspecified)
1.99 | OCC1CC2CCC1C2 (stereo unspecified)
3.11 | BrC1C2CC3C(C2)C13 (stereo unspecified)
0.4 | OC1CC2CCC1C2O (stereo unspecified)
1.58 | C1CC2CC1C1OC21 (stereo unspecified)
3.54 | BrC1CC2CCC1C2 (stereo unspecified)
2.67 | C1=CC2C=CC1C2
3.78 | C1CC2CCC1C2
